{"source": "paper PMC11477792", "about": "“Fabrication of a Heptapeptide-Modified Poly(glycidyl Methac-Rylate) Nanosphere for Oriented Antibody Immobilization and Immunoassay” (Molecules, 2024)", "key": {"IgG": {"tested_on": "IgG", "settings": "ref [22]; cited from earlier work", "excerpt": "(§1) Nowadays, numerous synthetic peptides are designed to specifically recognize and bind the conserved fragment crystallizable (Fc) region of IgG [18, 19], which is one of the most widely utilized types of antibodies in bioanalytical analysis. The Fc binding peptides made excellent exposure of the fragment antigen binding (Fab) region of IgG and thus maintained an easy approachability to the antigen-binding sites of the immobilized antibodies."}, "Fc region of IgG": {"tested_on": "Fc region of IgG", "settings": "ref [17],[21] (b5); ref [15],[16],[17]; cited from earlier work", "excerpt": "as §1"}, "[1]": {"molecular_target": "heptapeptide HWRGWVC (HC7) coupled to poly(glycidyl methacrylate) nanospheres (PGMA-HC7)", "assay": "batch adsorption isotherm (Langmuir fit); bovine IgG 0.4-4 mg/mL added to PGMA-HC7 nanosphere suspension, physiological buffer, 37 °C, 5 min; supernatant IgG read at 280 nm after centrifugation, adsorbed amount by mass balance"}}, "note": "Entries after “also recorded” stand apart in the source; their conditions may differ."}
{"substance": "HWRGWVC [HC7, heptapeptide ligand HWRGWVC, 95% purity, synthesized by GL Biochem Ltd]", "values": [{"measurement": "affinity for IgG relative to HWRGWV", "setting": "IgG", "result": "two orders of magnitude stronger"}]}
{"substance": "HWRGWV [hexapeptide ligand that could specifically recognize the Fc region of the antibody]", "values": [{"measurement": "Fc selectivity relative to protein A / protein G", "setting": "Fc region of IgG", "result": "comparable to protein A but not comparable to protein G; also recorded: comparable to protein A"}]}
{"substance": "bovine immunoglobulin G (IgG) (antibody)", "values": [{"measurement": "Kd", "setting": "[1]", "result": 5.8, "unit": "µM"}]}
